Patent EP4292827A1, “INK COMPOSITION, ARTICLE, AND PRODUCTION METHOD THEREFOR” (Zeon Corporation, priority 2021, dated 2022)
Read-outs that look alike come from different tables or passages of the source.

Tests used:
[1] = standard compounds with known logP values described in JIS 7260-117:2006, used for calibration curve; cited from earlier work

Compound	logP [1]	chromatographic logP (physchem)	other results
CC(=O)Nc1ccccc1 [Acetanilide]	1.0		
C=CC(=O)OCCCCCCOc1ccc(C(=O)Oc2ccc(/C=N/N=C/c3ccc(OC(=O)c4ccc(OCCCCCCOC(=O)C=C)cc4)c(C(=O)OC)c3)cc2)cc1 [Example X1]			chromatographic logP (physchem; hplc): 6.01
C=CC(=O)OCCOc1ccc(-c2ccc(C#N)cc2)cc1 [Example X2]		1.75	
C=CC(=O)OCCCCOC(=O)Oc1ccc(C(=O)Oc2ccc(C(=O)O[C@H]3CO[C@@H]4[C@H]3OC[C@H]4OC(=O)c3ccc(OC(=O)c4ccc(OC(=O)OCCCCOC(=O)C=C)cc4)cc3)cc2)cc1 [Example X3]		3.58	
C=CC(=O)OCCCCCCCCOC(=O)Oc1ccc(C(=O)Oc2ccc(OC(=O)c3ccc(OC(=O)OCCCCCCCCOC(=O)C=C)cc3)c(C)c2)cc1 [Example X4]		5.11	
c1ccc(N(c2ccccc2)c2ccccc2)cc1 [Triphenylamine]	5.7		
